Laboratory results taken from patent US12156862B2, “Medicaments for the treatment of vasoconstriction related diseases or disorders” (Sulfateq B.V., priority 2017, dated 2024).
Marks after values point to notes of the source that are not given here.

Key:
[1] = biological target: T1, human histamine H1 receptor (Homo sapiens, UniProt P35367); test: Histamine-induced intracellular calcium transients in HeLa cells; format: cell-based
T1 construct: HeLa cells endogenously expressing human histamine H1 receptor; endogenous in cells; host or cells: HeLa
T1 sequence (P35367 whole entry): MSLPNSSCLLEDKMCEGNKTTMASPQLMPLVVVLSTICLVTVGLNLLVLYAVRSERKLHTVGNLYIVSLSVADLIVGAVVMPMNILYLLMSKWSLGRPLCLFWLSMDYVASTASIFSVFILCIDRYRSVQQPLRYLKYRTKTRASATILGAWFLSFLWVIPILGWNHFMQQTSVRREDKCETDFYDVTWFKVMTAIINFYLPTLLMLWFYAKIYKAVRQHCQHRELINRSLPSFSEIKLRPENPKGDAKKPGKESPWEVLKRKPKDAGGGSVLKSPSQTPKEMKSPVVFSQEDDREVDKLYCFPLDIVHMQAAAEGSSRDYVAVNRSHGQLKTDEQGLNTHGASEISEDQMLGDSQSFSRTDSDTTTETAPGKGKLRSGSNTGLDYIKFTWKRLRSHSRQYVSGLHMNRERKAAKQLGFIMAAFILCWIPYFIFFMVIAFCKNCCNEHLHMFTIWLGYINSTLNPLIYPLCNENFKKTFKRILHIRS
Procedure: (§1) HeLa cells endogenously expressing histamine and TP receptors were grown in DMEM-F12 medium enriched with 10% FBS and 1% penicillin-streptomycin. Cells were kept in a tissue culture incubator at 37° C. in […] atmosphere and grown in 75 cm^2 non-treated cell culture flasks. Plating was performed 24 hours before measurement on black transparent-bottom 96-well plates at 20,000 cells per well density.
(§2) To confirm specificity of SUL-150 for the α1 adrenoceptor additionally histamine and U46619 induced calcium transients were studied in HeLa cells endogenously expressing human histamine H1 receptor.

[2] = biological target: T2, α1A adrenoceptor (Homo sapiens, UniProt P35348); test: Radiolabeled prazosin displacement binding assay in α1A adrenoceptor transgenic CHO cells; conditions: [7-Methoxy-3H]-prazosin
T2 construct: expressed in transfected cells; host or cells: CHO-K1
T2 sequence (P35348 1-466): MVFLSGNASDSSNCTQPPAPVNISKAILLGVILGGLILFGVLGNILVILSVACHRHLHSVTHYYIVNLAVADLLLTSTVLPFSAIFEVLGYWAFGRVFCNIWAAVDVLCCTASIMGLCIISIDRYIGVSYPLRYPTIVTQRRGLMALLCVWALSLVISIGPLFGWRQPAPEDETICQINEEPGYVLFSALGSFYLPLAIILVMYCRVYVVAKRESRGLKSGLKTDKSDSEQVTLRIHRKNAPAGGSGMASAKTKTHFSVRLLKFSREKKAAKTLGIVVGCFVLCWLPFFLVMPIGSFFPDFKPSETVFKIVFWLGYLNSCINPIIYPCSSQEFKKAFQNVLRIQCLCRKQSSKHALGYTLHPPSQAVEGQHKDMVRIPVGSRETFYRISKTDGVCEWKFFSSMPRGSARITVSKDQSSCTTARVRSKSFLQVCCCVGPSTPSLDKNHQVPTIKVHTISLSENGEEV
Text: We therefore explored whether SUL-150 could directly interact with the α1 adrenoceptor as a receptor antagonist.

[3] = biological target: T3, human α1 adrenoceptor subtype D (Homo sapiens, UniProt P25100); test: Phenylephrine-induced intracellular calcium (FLIPR Calcium 6) in CHO cells, α1D; format: cell-based
T3 construct: expressed in transfected cells; host or cells: CHO-K1
T3 sequence (P25100 1-572): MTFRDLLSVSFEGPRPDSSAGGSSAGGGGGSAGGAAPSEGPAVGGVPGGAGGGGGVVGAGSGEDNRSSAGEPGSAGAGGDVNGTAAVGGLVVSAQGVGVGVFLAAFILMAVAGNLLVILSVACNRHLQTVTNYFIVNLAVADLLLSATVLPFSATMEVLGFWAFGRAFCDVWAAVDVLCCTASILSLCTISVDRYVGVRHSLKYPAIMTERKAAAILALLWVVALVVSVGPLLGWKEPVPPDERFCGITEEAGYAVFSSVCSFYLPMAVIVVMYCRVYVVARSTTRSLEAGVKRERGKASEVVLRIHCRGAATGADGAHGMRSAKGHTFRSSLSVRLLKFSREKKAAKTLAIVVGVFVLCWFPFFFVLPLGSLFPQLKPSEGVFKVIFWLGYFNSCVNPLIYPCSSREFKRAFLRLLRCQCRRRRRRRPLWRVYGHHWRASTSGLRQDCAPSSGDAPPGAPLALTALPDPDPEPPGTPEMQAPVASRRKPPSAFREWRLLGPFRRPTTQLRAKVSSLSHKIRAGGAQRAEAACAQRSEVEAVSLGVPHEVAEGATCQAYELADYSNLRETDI
Procedure: (§3) CHO-K1 cells were stably transfected with a plasmid containing human al-AR subtypes A, B and D in separate cell lines in DMEM-F12 medium with 10% FBS, 1% penicillin-streptomycin and 200 μg/mL Geneticin (G418, Invitrogen, Carlsbad, CA).
(§4) On the next day, CHO cells were treated with either vehicle (0.1% DMSO) or SUL-121 enantiomers for 30 min at 37° C. and stimulated with a 3-fold dilution series of PE (20 μM-100 pM). [Ca^2], was measured using the fluorescent FLIPR Calcium 6 assay kit (Molecular Devices) in immortalized CHO cells stably expressing the α1 adrenoceptor.
(§5) Initially, calcium responses induced by non-cumulative concentration series of phenylephrine were investigated using fluorescent measurements in α1A adrenoceptor-overexpressing CHO cells treated with SUL-150 and SUL-151 (FIG. 4). Fluorescent measurement data was processed and analyzed in SoftMax Pro 7 and expressed as % of baseline AUC with a 3-fold multiplier using an average of first 10 measurement points as baseline.

[4] = biological target: T4, TP receptors (Homo sapiens, UniProt P21731); test: U46619-induced intracellular calcium transients in HeLa cells; format: cell-based
T4 construct: HeLa cells endogenously expressing histamine and TP receptors; endogenous in cells; host or cells: HeLa
T4 sequence (P21731 1-343): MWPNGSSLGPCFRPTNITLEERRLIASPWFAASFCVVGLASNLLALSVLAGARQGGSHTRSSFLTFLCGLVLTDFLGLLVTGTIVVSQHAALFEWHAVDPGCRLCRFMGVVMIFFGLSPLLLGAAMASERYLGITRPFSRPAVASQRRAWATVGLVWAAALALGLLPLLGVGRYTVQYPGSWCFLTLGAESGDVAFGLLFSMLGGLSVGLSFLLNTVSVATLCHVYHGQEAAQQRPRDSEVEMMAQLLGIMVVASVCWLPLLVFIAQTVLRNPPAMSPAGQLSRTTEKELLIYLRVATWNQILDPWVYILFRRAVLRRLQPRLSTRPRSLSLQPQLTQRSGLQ
Procedure: as §1, §2

[5] = biological target: T5, human α1 adrenoceptor subtype B (Homo sapiens, UniProt P35368); test: Phenylephrine-induced intracellular calcium (FLIPR Calcium 6) in CHO cells, α1B; format: cell-based
T5 construct: expressed in transfected cells; host or cells: CHO-K1
T5 sequence (P35368 1-520): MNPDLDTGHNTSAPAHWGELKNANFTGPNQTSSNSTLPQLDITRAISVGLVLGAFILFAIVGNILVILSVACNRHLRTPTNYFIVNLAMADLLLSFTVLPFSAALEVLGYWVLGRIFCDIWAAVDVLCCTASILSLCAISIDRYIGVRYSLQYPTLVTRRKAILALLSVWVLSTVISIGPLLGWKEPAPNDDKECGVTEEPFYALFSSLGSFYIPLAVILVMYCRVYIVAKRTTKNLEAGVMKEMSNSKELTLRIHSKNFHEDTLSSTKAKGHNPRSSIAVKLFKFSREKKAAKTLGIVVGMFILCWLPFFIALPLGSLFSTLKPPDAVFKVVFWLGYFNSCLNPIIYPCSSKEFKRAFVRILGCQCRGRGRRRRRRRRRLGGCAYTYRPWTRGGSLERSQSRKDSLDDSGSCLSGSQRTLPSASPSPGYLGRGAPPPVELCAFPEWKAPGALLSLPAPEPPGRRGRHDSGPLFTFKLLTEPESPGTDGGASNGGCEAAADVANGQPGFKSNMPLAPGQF
Procedure: as §3, §4, §5

[6] = system: EGFR transactivation; test: Phenylephrine-induced constriction of porcine intrarenal arteries pre-treated with EGFR blocker AG1478; conditions: AG1478 20 μM and SUL-150 50 μM
Procedure: Inhibition of EGF receptor (EGFR) transactivation is known to inhibit α1 adrenoceptor mediated constrictions (REF). Therefore, we investigated the role of EGFR transactivation in SUL-150 mediated inhibition of vasoconstriction. For this, porcine intrarenal arteries were pre-treated with the EGFR blocker AG1478 (FIG. 3). First, an initial measurement was performed to determine the dose of AG1478 which would cause maximal inhibition of vascular constriction induced by PE (FIG. 3A). Subsequently, isolated arteries were treated with AG1478 (20 μM) and SUL-150 (50 μM) and studied for PE-induced vasoconstriction.

[7] = system: α1 adrenoceptor; test: Phenylephrine-induced constriction of isolated porcine intrarenal arteries (myography)
Procedure: (§6) Porcine kidneys were obtained from a local slaughterhouse (Kroon Vlees, Gotenburgweg 30, 9723 TM Groningen. The Netherlands) and transported on ice in normal physiological Krebs buffer containing 120 mM NaCl, 6 mM KCl, 2.5 mM CaCl2×2H2O, 1.2 mM MgCl2×6H2O, 1.2 mM NaH2PO4×H2O, 25 mM NaHCO3 and 11.4 mM D-(+)-Glucose monohydrate (all ingredients were purchased from Merck) in ultrapure water.
(§7) The renal artery tree was dissected from the kidney, cleaned of surrounding connective tissue and cut into equally-sized ring segments (2 mm in length). In some rings, endothelium denudation was performed by gentle rubbing of the intimal surface with a paper clip. Rings were mounted in organ baths as described previously (Buikema et al., 2000). Arterial rings were washed thoroughly by replacing Krebs buffer and allowed to equilibrate for a period of 60 min under 1.4 g of resting tension before they were assessed for viability by inducing 2 subsequent constrictions with KCl (60 mM). […] After washout and stabilization, rings were treated for 30 minutes by incubation with vehicle (0.1% DMSO), SUL-121, SUL-150 or SUL-151, followed by subsequent incubation with cumulative doses of phenylephrine.
Dose-dependent constriction responses to phenylephrine (10^−8M-10^−4M) were recorded in said isolated porcine intrarenal arteries. Buffer was warmed to 37° C. and aerated with 95% O2 and 5% CO2 before use.
Vascular constriction responses are expressed as percentage of final response to KCl. Data are expressed as mean±SEM. *p<0.05.
To explore the effects of the enantiomers of (6-hydroxy-2,5,7,8-tetramethylchroman-2-yl)(piperazin-1-yl)methanone (SUL-150 and SUL-151) on constriction of isolated porcine intrarenal arteries, cumulative dose response curves to the α1 adrenoceptor agonist phenylephrine (PE) were constructed in the presence and absence of SUL-150 and SUL-151.

[8] = system: porcine intrarenal arteries (histamine induced constrictions); test: Histamine-induced constriction of isolated porcine intrarenal arteries; conditions: for logEC50 of histamine-induced constriction responses: Porcine renalis
Procedure: as §6, §7
(§8) To gain insight into receptor specificity of SUL-150, the effects of SUL-150 on histamine and U46619 (a synthetic thromboxane agonist) induced constrictions were investigated (FIG. 2).

[9] = biological target: T6, human α1 adrenoceptor subtype A (Homo sapiens, UniProt P35348); test: Phenylephrine-induced intracellular calcium (FLIPR Calcium 6) in CHO cells, α1A; format: cell-based
T6 construct: expressed in transfected cells; host or cells: CHO-K1
T6 sequence (P35348 1-466): T2 sequence (P35348 1-466)
Procedure: as §3, §4, §5

[10] = system: α1 adrenoceptor; test: Methoxamine-induced constriction of isolated porcine intrarenal arteries
Procedure: as §6, §7
Additionally, the effects of SUL-150 were investigated on stimulation with methoxamine, which is an alternative α1 adrenoceptor agonist.

[11] = biological target: T7, thromboxane receptors (Sus scrofa, UniProt A0A287A102); test: U46619-induced constriction of isolated porcine intrarenal arteries; conditions: for logEC50 of U46619-induced constriction responses: Porcine renalis
T7 construct: from tissue; host or cells: porcine intrarenal artery rings
T7 sequence (A0A287A102 1-343): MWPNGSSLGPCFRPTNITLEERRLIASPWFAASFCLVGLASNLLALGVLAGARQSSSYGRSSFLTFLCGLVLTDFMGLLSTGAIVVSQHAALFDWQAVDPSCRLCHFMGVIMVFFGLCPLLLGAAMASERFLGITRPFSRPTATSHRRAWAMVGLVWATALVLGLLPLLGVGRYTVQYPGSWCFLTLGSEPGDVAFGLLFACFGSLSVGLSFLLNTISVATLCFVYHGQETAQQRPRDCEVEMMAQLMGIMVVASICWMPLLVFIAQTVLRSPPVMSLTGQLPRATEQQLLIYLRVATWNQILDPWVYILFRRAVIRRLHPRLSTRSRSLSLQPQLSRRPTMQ
Procedure: as §6, §7, §8

[12] = 10 μM SUL-150, calcium transients
[13] = 30 μM SUL-150, calcium transients
[14] = 100 μM SUL-150, calcium transients

logEC50 of histamine-induced response, HeLa cells [1, 12]: −6.45 ± 0.05
logEC50 of histamine-induced response, HeLa cells [1, 13]: −6.39 ± 0.05
logEC50 of histamine-induced response, HeLa cells [1, 14]: −6.29 ± 0.06
effect on histamine induced calcium transients ([1]; in words): did not significantly affect
potency in displacing the radioligand compared to SUL-151 [2]: more potent
logEC50 of phenylephrine-induced calcium influx, α1D ([3]; 10 μM test compound): −7.37 ± 0.10
logEC50 of phenylephrine-induced calcium influx, α1D ([3]; 30 μM test compound): −7.04 ± 0.06
logEC50 of phenylephrine-induced calcium influx, α1D ([3]; 100 μM test compound): −6.80 ± 0.10
effect on PE-induced calcium transients, α1 adrenoceptor subtype D ([3]; in words): shifted dose response curves rightwards
logEC50 of U46619-induced response, HeLa cells [4, 12]: −6.83 ± 0.10
logEC50 of U46619-induced response, HeLa cells [4, 13]: −6.78 ± 0.18
logEC50 of U46619-induced response, HeLa cells [4, 14]: −6.75 ± 0.10
effect on U46619 induced calcium transients ([4]; in words): did not significantly affect
logEC50 of phenylephrine-induced calcium influx, α1B ([5]; 10 μM test compound): −7.51 ± 0.08
logEC50 of phenylephrine-induced calcium influx, α1B ([5]; 30 μM test compound): −7.24 ± 0.07
logEC50 of phenylephrine-induced calcium influx, α1B ([5]; 100 μM test compound): −6.72 ± 0.08
effect on PE-induced calcium transients, α1 adrenoceptor subtype B ([5]; in words): shifted dose response curves rightwards
logEC50 of phenylephrine-induced calcium influx, α1A ([9]; 10 μM test compound): −7.62 ± 0.03
logEC50 of phenylephrine-induced calcium influx, α1A ([9]; 30 μM test compound): −7.28 ± 0.03
logEC50 of phenylephrine-induced calcium influx, α1A ([9]; 100 μM test compound): −6.88 ± 0.03
effect on PE-induced calcium transients, α1 adrenoceptor subtype A ([9]; in words): shifted dose response curves rightwards
logEC50 of U46619-induced constriction responses ([11]; 30 μM SUL-150): −7.58 ± 0.06
logEC50 of U46619-induced constriction responses ([11]; 100 μM SUL-150): −7.50 ± 0.04
shift in EC50 of U46619-induced constrictions ([11]; 100 μM SUL-150, in words): small effect size
Structure (SMILES): Cc1c(C)c2c(c(C)c1O)CC[C@](C)(C(=O)N1CCNCC1)O2 [SUL-150, (R)(6-hydroxy-2,5,7,8-tetramethylchroman-2-yl)(piperazin-1-yl)methanone]
effect on PE-mediated constriction on top of AG1478 [6]: additional inhibitory effect
logEC50 of phenylephrine-induced constriction responses ([7]; 10 μM test compound): −5.11 ± 0.09*
logEC50 of phenylephrine-induced constriction responses ([7]; 30 μM test compound): −5.06 ± 0.06*
logEC50 of phenylephrine-induced constriction responses ([7]; 100 μM test compound): −4.44 ± 0.09*
logEC50 of histamine-induced constriction responses ([8]; 30 μM SUL-150): −4.86 ± 0.08
effect on constriction responses to histamine ([8]; 30 μM and 100 μM, in words): did not affect
logEC50 of histamine-induced constriction responses ([8]; 100 μM SUL-150): −4.85 ± 0.10
effect on dose response curves to methoxamine ([10]; SUL-150 pre-treatment (30 μM and 100 μM), intact endothelium): shifted rightward
effect on methoxamine induced constriction after removal of the endothelium ([10]; endothelium-denuded rings): did not abrogate the effects of SUL-150
